Values joined by “and” are separate entries in the source; they are usually repeats but may differ in a detail not shown here. Equal values may be shown once. Read-outs that look alike come from different tables or passages of the source.
What was measured:
S. aureus UC 9213 = test: Murine Assay procedure: in vivo antimicrobial activity, survival of infected mice (S. aureus UC 9213); design: species or system Staphylococcus aureus (infected female mice); conditions: dosed 1 h and 5 h after i.p. infection, survival daily for six days; for ED50: Staphylococcus aureus, UC9213, 144 h, oral, probit
Protocol: (§1) Antimicrobial activity was tested in vivo using the Murine Assay procedure. Groups of female mice (six mice of 18-20 grams each) were injected intraperitoneally with bacteria which were thawed just prior to use and suspended in brain heart infusion with 4% brewers yeast (Staphylococcus aureus) or brain heart infusion (Streptococcus species). Antibiotic treatment at six dose levels per drug was administered one hour and five hours after affection by either oral intubation or subcutaneous routes. Survival was observed daily for six days. ED50 values based on mortality ratios were calculated using probit analysis. The subject compounds were compared against well-known antimicrobial as controls.

S. aureus UC 9271 = test: Murine Assay procedure: in vivo antimicrobial activity, survival of infected mice (S. aureus UC 9271); design: species or system Staphylococcus aureus (infected female mice); conditions: Staphylococcus aureus
Protocol: as §1

S. aureus UC 6685 = test: Murine Assay procedure: in vivo antimicrobial activity, survival of infected mice (S. aureus UC 6685); design: species or system Staphylococcus aureus (infected female mice); conditions: Staphylococcus aureus
Protocol: as §1

S. pyogenes UC 152 = test: Murine Assay procedure: in vivo antimicrobial activity, survival of infected mice (S. pyogenes UC 152); design: species or system S. pyogenes (infected female mice); conditions: Streptococcus pyogenes, UC152, 144 h, oral, dosed 1 h and 5 h after i.p. infection, survival daily for six days
microbial infections = test: treatment of microbial infections (relative activity, test not given)

SMILES	ED50 (S. aureus UC 9213) [mg/kg]	further results
COC(=O)N1CCN(c2ccc(N3CC(CNC(C)=O)OC3=O)cc2)CC1 (stereo not shown) [Example 3, 4-(4-(5-((Acetylamino)methyl)-2-oxo-3-oxazolidinyl)phenyl)-1-piperazinecarboxylic acid, methyl ester]	10.4	
CC(=O)NCC1CN(c2ccc(N3CCN(C(=O)c4ccccc4)CC3)c(F)c2)C(=O)O1 (stereo not shown) [Example 7, N-((3-(4-(3-Fluoro-4-((benzoyl)-1-piperazinyl))phenyl)-2-oxo-5-oxazolidinyl)methyl)-acetamide]	12	
CC(=O)NCC1CN(c2ccc(N3CCN(C(=O)OCCO)CC3)c(F)c2)C(=O)O1 (stereo not shown) [Example 6, 4-(4-(5-((acetylamino)methyl)-2-oxo-3-oxazolidinyl)-2-fluorophenyl)-1-piperazinecarboxylic acid, 2-hydroxyethyl ester]	12	
COC(=O)N1CCN(c2ccc(N3CC(CNC(C)=O)OC3=O)cc2F)CC1 (stereo not shown) [Example 1, 4-(4-(5-((Acetylamino)methyl)-2-oxo-3-oxazolidinyl)-2-fluorophenyl)-1-piperazinecarboxylic acid, methyl ester]	3.8	ED50 (S. aureus UC 9271; UC9271, 144 h, S. aureus UC 9271, oral, dosed 1 h and 5 h after i.p. infection, survival daily for six days, read-out: ED50, PO): 4 mg/kg; ED50 (S. aureus UC 6685; UC6685, 144 h, S. aureus UC 6685, oral, dosed 1 h and 5 h after i.p. infection, survival daily for six days, read-out: ED50, PO): 4 mg/kg; ED50 (S. pyogenes UC 152): 2.3 mg/kg; activity relative to the Formula I compounds (microbial infections): most active
CN[C@H](CC(C)C)C(=O)N[C@H]1C(=O)N[C@@H](CC(N)=O)C(=O)N[C@H]2C(=O)N[C@H]3C(=O)N[C@H](C(=O)N[C@H](C(=O)O)c4cc(O)cc(O)c4-c4cc3ccc4O)[C@H](O)c3ccc(c(Cl)c3)Oc3cc2cc(c3O[C@@H]2O[C@H](CO)[C@@H](O)[C@H](O)[C@H]2O[C@H]2C[C@](C)(N)[C@H](O)[C@H](C)O2)Oc2ccc(cc2Cl)[C@H]1O [Vancomycin, reference compound]		Control, ED50, SC (S. aureus UC 9213; control antibiotic, subcutaneous, 8640 min): 1.8 mg/kg and 1.9 mg/kg; ED50 (S. aureus UC 9271; UC9271, sc, 144 h, read-out: Control, ED50, SC): 5.9 mg/kg
CC(=O)CCC(=O)N1CCN(c2ccc(N3CC(CNC(C)=O)OC3=O)cc2F)CC1 (racemic) [Example 10, (±)-N-[[3-[4-[4-(1,4-Dioxopentyl)-1-piperazinyl]-3-fluorophenyl]-2-oxo-5-oxazolidinyl]methyl)Acetamide]	9.4	
COCCN1CCN(c2c(F)cc(N3C[C@H](CNC(C)=O)OC3=O)cc2F)CC1 [Example 37, (S)-N-[[3-[3,5-difluoro-4-[4-(2-methoxyethyl)-1-piperazinyl]phenyl]-2-oxo-5-oxazolidinyl]methyl]acetamide]	12.6	
CC(=O)NCC1CN(c2ccc(N3CCN(CCC#N)CC3)c(F)c2)C(=O)O1 (stereo not shown) [Example 5, N-((3-(4-(3-Fluoro-4-(4-(2-Cyanoethyl)-1-piperazinyl))phenyl)-2-oxo-5-oxazolidinyl)methyl)-acetamide]	10	
CC(=O)NCC1CN(c2ccc(N3CCN(CC#N)CC3)c(F)c2)C(=O)O1 (stereo not shown) [Example 9]		activity relative to the Formula I compounds (microbial infections): most active
COCCN1CCN(c2ccc(N3C[C@H](CNC(C)=O)OC3=O)cc2F)CC1 [Example 36, (S)-N-[[3-[3-fluoro-4-[4-(2-methoxyethyl)-1-piperazinyl]phenyl]-2-oxo-5-oxazolidinyl]methyl]acetamide]	7.9	
O=C(O)c1cn(C2CC2)c2cc(N3CCNCC3)c(F)cc2c1=O [Ciprofloxacin, reference compound]		ED50 (S. aureus UC 6685; UC6685, sc, 144 h, read-out: Control, ED50, SC): 6.6 mg/kg

Source: patent US5700799A, “Oxazolidinone antimicrobials containing substituted diazine moieties” (Pharmacia & Upjohn Company, priority 1996, dated 1997)
